In BindingDB's records for doi:10.1021/jm970815r (Eisai, 1998) one finds IC50 data, which are given here for 8 molecules.

SMILES strings stand for the structures.

The experiment can be described thus: Inhibition of Phosphodiesterase 5 from porcine platelets.
Turning to `COc1ccc(CNc2nnc(Cl)c3ccc(C#N)cc23)cc1Cl`, the IC50 (as a rule, the concentration at which inhibition is half-maximal) is 4.8 nM. Turning to `CCOc1ccc(CNc2nnc(Cl)c3ccc(C#N)cc23)cc1Cl` [1-Chloro-4-(3-chloro-4-ethoxy-benzylamino)-phthalazine-6-carbonitrile], the concentration for half-maximal inhibition (IC50) amounted to 49 nM. Molecule `COc1ccc(CNc2nnc(Cl)c3ccc(C#N)cc23)cc1` [1-Chloro-4-(4-methoxy-benzylamino)-phthalazine-6-carbonitrile] displayed an IC50 of 140 nM. Molecule `COc1ccc(CNc2nnc(Cl)c3cc(C#N)ccc23)cc1Cl` [4-Chloro-1-(3-chloro-4-methoxy-benzylamino)-phthalazine-6-carbonitrile] returned an IC50 of 140 nM. `COc1ccc(CNc2nnc(Cl)c3cc(Cl)ccc23)cc1Cl` [(3-Chloro-4-methoxy-benzyl)-(4,6-dichloro-phthalazin-1-yl)-amine] yielded an IC50 of 810 nM. Molecule `COc1ccc(CNc2nnc(Cl)c3ccc([N+](=O)[O-])cc23)cc1Cl` [(3-Chloro-4-methoxy-benzyl)-(4-chloro-7-nitro-phthalazin-1-yl)-amine] had a concentration for half-maximal inhibition (IC50) of 3.5 nM. The molecule `COc1ccc(CNc2nnc(Cl)c3ccc(C(F)(F)F)cc23)cc1Cl` [(3-Chloro-4-methoxy-benzyl)-(4-chloro-7-trifluoromethyl-phthalazin-1-yl)-amine] gave a 50% inhibitory concentration (IC50) of 5.3 nM.

On to `O=[N+]([O-])c1ccc2c(Cl)nnc(NCc3ccc4c(c3)OCO4)c2c1` [Benzo[1,3]dioxol-5-ylmethyl-(4-chloro-7-nitro-phthalazin-1-yl)-amine], for which the IC50 was determined as 63 nM.
